The values that follow come from patent publication US5349127A, “Expression of herbicide metabolizing cytochromes P450” (priority 1992, dated 1994).

Data set [1] can be described thus: Incubation buffer without cells, time 0 (Examples 5-9, 11, 12). Type of data set: in vitro ADME. Conditions: no cells; substrate 10006; 0 h. As to the method:
(§1) A 100 ml culture of S. griseolus ATCC 11796 in sporulation broth and a 50 ml culture of S. lividans transformed with pCAO400 in YEME broth were prepared and incubated for 24 hours as described. At that time, the S. griseolus culture was split into two 50 ml aliquots into two separate flasks and 25 ml of fresh sporulation broth was added to each and 9 mg of […] was added to one of these cultures to induce cytochrome P450SU1 expression. Fresh YEME broth (25 ml) was added to the S. lividans culture. After an additional 6 hours growth at 30° C., the cells in each culture were harvested as described above, washed twice with MOPS (50 mM, pH 7.2) and recentrifuged. The cell pellets were resuspended in four cell volumes of MOPS (50 mM, pH 7.2) containing 0.2% glucose and about 100 μg/ml of 10004. These cell suspensions were incubated at 30° C. with shaking and aliqouts were taken at 2 and 5.5 hours. The supernatant of each aliquot was analyzed by HPLC and the concentrations of the sulfonylurea compound 10004 and its metabolite 10005 were determined.
(§2) S. lividans transformed respectively with pCAO200SU1-FeS-B#9, pCAO200SU#112and pCAO200 were cultured for 36 hours in 400 ml of YEME broth at 30° C. S. griseolus ATCC 11796 was similarly cultured in 400 ml of sporulation broth. Six hours before harvesting the cells, 150 ml of fresh YEME broth was added to the S. lividans cells, and the S. griseolus cells were split into two 200 ml cultures with 100 ml of fresh sporulation broth added to each. 10001 (36 mg) was added to one of the two S. griseolus cultures to induce cytochrome P450SU1. The cells were prepared as described above in Example 5 and the concentrations of the sulfonylurea compound 10006 and its metabolites 10007, 10008 or 10009 were determined.
S. lividans transformed with pCAO200SU2-FeS-A#11 and S. lividans transformed with pCAO200 were cultured for 36 hours in 400 ml of YEME broth at 30° C. S. griseolus PH2001 (mutant without SU1) was cultured in 400 ml of sporulation broth at 30° C. Nine hours before harvesting the cells, the S. griseolus PH2001 culture was divided into two 200 ml cultures. Both received 100 ml of fresh sporulation broth and one received 36 mg of 10001 to induce cytochrome P450SU2. The cells were prepared as described above in Example 6 and the concentrations of the sulfonylurea compound 10001 and its metabolites 10002 and 10003 were determined.

Data set [2] concerns S. griseolus ATCC 11796 induced with 10001. Nature of the data set: Sulfonylurea metabolism by washed cell suspension (Examples 5-9). The format is in vitro ADME, Streptomyces griseolus. Conditions: substrate 10006. How it is done: (§3) Herbicides and their metabolites are measured by HPLC as described by Romesser et al., BBRC 140: 650-659 (1986), herein incorporated by reference, except that 0.1% H3 PO4 is used in both solvents. Chromatographic identity and quantitation of the herbicides and their resulting metabolites is determined by comparing them chromatographically with authentic standard compounds. Identity of the resulting metabolites is also confirmed by UV spectroscopy.
as §1, §2

Data set [3] has as its system S. griseolus ATCC 11796 uninduced. The description is as above. Conditions: substrate 10006. The format is in vitro ADME, Streptomyces griseolus. How it is done:
as §3, §1, §2

Data set [4] has as its system S. lividans pCAO200SU1-FeS-B#9. Nature of the data set: Sulfonylurea metabolism by washed cell suspension (Examples 6-9). The format is in vitro ADME, Streptomyces lividans. Conditions: substrate 10006.
Data set [5] deals with S. lividans pCAO200SU1#12. The description is as above. Type of data set: in vitro ADME, Streptomyces lividans. Conditions: substrate 10006. How it is done:
(§4) Herbicides and their metabolites are measured by HPLC as described by Romesser et al., BBRC 140: 650-659 (1986), herein incorporated by reference, except that 0.1% H3 PO4 is used in both solvents. Chromatographic identity and quantitation of the herbicides and their resulting metabolites is determined by comparing them chromatographically with authentic standard compounds. Identity of the resulting metabolites is also confirmed by UV spectroscopy. […]
as §2

The test system of data set [6] is S. lividans pCAO200. The data set is described as above. The format is in vitro ADME, Streptomyces lividans. Conditions: substrate 10006. How it is done:
as §4, §2

In data set [7] the test system is S. griseolus ATCC11796. Description: Percent conversion of non-sulfonylurea herbicides (Example 29). Type of data set: in vitro ADME, Streptomyces griseolus. Conditions: 3.0 mg herbicide in 25 ml broth; 18 hours. How it is done:
(§5) This experiment was performed as in Example 17 with the following changes. Separate cultures (50 ml) inoculated with S. lividans C37, S. lividans transformed with pCAO200SU1-FeS-B#9, or S. griseolus ATCC11796 were cultured in sporulation broth for 18 hours at 30° C. with shaking. Each culture was then resuspended in 25 ml fresh sporulation broth and 3.0 mg herbicide added. Each culture was reincubated for 18 hours, then an aliquot of the medium was withdrawn and analyzed by HPLC. The percent conversion of herbicide was determined.

In data set [8] the test system is S. lividans C37. Described as above. Conditions: 3.0 mg herbicide in 25 ml broth; 18 hours. Type of data set: in vitro ADME, Streptomyces lividans. As to the method: as §5
Data set [9] relates to S. lividans pCAO200SU1-FeS-B#9. The data set is described as above. The format is in vitro ADME, Streptomyces lividans. Conditions: for Percent Conversion: 3.0 mg herbicide in 25 ml broth, 18 hours; for metabolism by bacteria containing constitutively expressed P450SU1: summary of Table 29. How it is done: as §5

On to `COC(=O)c1ccccc1S(=O)(=O)NC(=O)Nc1nc(C)nc(OC)n1` [compound 10006, N-[(4-methoxy-6-methyl-1,3,5-triazinyl)aminocarbonyl]-2-methoxycarbonylbenzenesulfonamide], for which the concentration in supernatant is 362 µM in [1]; 369 µM in data set [2] (2 h); 357 µM in [2] (4 h); 355 µM in data set [2] (6 h); 404 µM in data set [3] (2 h); 394 µM in [3] (4 h). Besides, the concentration in supernatant was found to be 405 µM in [3] (6 h); 326 µM in [4] (2 h); 267 µM in [4] (4 h); 232 µM in data set [4] (6 h); 376 µM in data set [5] (2 h); 384 µM in data set [5] (4 h). Further, the concentration in supernatant in [5] (6 h) is 386 µM; in data set [6] (2 h), 381 µM; in data set [6] (4 h) it was 377 µM; in data set [6] (6 h), 375 µM.

Turning to `CCc1cnc(C2=NC(C)(C(C)C)C(=O)N2)c(C(=O)O)c1` (stereo not drawn) [compound 10034], the “Percent Conversion” value in data set [7] came to 13%; in [8], 10%; in [9] it was 69%. Besides, the “metabolism by bacteria containing constitutively expressed P450SU1” value in data set [9] is on record as “metabolized”.

For the molecule `CC(C)C1(C)N=C(c2nc3ccccc3cc2C(=O)O)NC1=O` (stereo not drawn) [compound 10035, 2-[4,5-dihydro-4-methyl-4-(1-methylethyl)-5-oxo-1H-imidazol-2-yl]-3-quinolinecarboxylic acid], the results for the “Percent Conversion” value in data set [7], in [8] and in [9] were 21%, 22% and 96%, respectively. Moreover, the “metabolism by bacteria containing constitutively expressed P450SU1” value in data set [9] is “metabolized”.
